# Target: T1, Human ENT2 (Homo sapiens, UniProt Q14542)
# T1 construct: expressed in transfected cells
# T1 sequence (Q14542 1-456): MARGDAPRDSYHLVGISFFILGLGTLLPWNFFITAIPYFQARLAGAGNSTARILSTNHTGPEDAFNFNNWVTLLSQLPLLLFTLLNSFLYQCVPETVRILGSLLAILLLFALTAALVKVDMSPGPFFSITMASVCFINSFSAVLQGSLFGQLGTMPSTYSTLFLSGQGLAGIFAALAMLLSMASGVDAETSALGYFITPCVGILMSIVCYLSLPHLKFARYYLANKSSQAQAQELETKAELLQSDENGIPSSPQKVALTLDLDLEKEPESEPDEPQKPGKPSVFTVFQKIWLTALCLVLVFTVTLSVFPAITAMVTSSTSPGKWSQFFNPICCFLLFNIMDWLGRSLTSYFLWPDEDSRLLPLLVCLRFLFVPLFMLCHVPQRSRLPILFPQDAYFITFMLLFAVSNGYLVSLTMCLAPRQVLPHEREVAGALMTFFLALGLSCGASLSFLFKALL
# Assay: Adenosine uptake assay, ENT2-mediated transport in MDCKII cells
# Assay type: cell-based
# Conditions: MDCKIIENT2-LV cells, probe adenosine 0.5 μM, pre-incubation 30 min, incubation 10 min
# Protocol: The goal of this study was to determine the potency and selectivity of ENT1 inhibitors by measuring ENT1 and ENT2-mediated transport using an in vitro cellular uptake assay.
# Human ENT1 and ENT2 transporters were stably expressed in Madin-Darby Canine Kidney II (MDCKII) cells via transduction. Cell lines overexpressing the relevant ENT1 or ENT2 molecules were preincubated with a dose range of the relevant compound for 30 minutes before introduction of the specific substrate at the concentration indicated in the Table assay parameters below. The transporter assay was conducted for the time specified in the Table assay parameters before the specific uptake of the substrate into the cells was quantified. Specific uptake was determined by comparing the uptake from the cells treated with the relevant compounds and the uptake by cells not overexpressing the transporter in question.
# Specific uptake for each concentration of the test sample was normalized to the DMSO control value to generate a relative accumulation value (or relative transporter activity). Data were plotted against the log molar concentration of the test reagent used. IC50 values were generated with Prism version 9.4.1 and the following function: log(inhibitor) vs. response—Variable slope (four parameters).
row,IC50 [nM],SMILES
1,20 to 1000,C[C@H]1O[C@@H](n2c(NC3CCCC3)nc3c(OCc4ccc([N+](=O)[O-])cc4)ncnc32)[C@H](O)[C@@H]1O [Compound 6]
2,> 1000,C[C@H]1O[C@@H](n2c(NC3CCC(O)CC3)nc3c(OCc4ccc([N+](=O)[O-])cc4)ncnc32)[C@H](O)[C@@H]1O (stereo partly shown) [Compound 28]
3,20 to 1000,C[C@H]1O[C@@H](n2c(NC3CCOCC3)nc3c(OCc4ccc(C#N)cc4)ncnc32)[C@H](O)[C@@H]1O [Compound 73]
4,20 to 1000,C[C@H]1O[C@@H](n2c(NC3CCOCC3)nc3c(OCc4ccc(OC(F)F)nc4)ncnc32)[C@H](O)[C@@H]1O [Compound 75]
5,20 to 1000,C[C@H]1O[C@@H](n2c(N[C@H]3CCC(F)(F)C3)nc3c(OCc4ccc(C#N)cc4)ncnc32)[C@H](O)[C@@H]1O [Compound 82]
6,> 1000,C[C@H]1O[C@@H](n2cnc3c(SCc4ccc([N+](=O)[O-])cc4)ncnc32)[C@H](O)[C@@H]1O [Compound 147]
7,> 1000,C[C@H]1O[C@@H](n2cnc3c(N4CCc5ccc([N+](=O)[O-])cc5C4)ncnc32)[C@H](O)[C@@H]1O [Compound 151]
8,> 1000,C[C@H]1O[C@@H](n2cnc3c(OCc4ccc([N+](=O)[O-])cc4)ncnc32)[C@H](O)[C@@H]1O [Compound 166]
9,> 1000,C[C@H]1O[C@@H](n2cnc3c(OCc4ccc(OC(F)F)cc4)ncnc32)[C@H](O)[C@@H]1O [Compound 173]
10,> 1000,OCCOC[C@H]1O[C@@H](n2cnc3c(OCc4ccc(OC(F)(F)F)cc4)ncnc32)[C@H](O)[C@@H]1O [Compound 175]

# — patent US20260184712A1, “Heterocyclic Compounds as ENT Inhibitors and Compounds for Use in the Treatment of Cancers” (iTeos Belgium SA, priority 2022, published 2026)
